The assay deals with T1, CRTH2 receptor (hCRTH2) (Homo sapiens, UniProt Q9Y5Y4).
T1 construct: expressed in transfected cells; host or cells: HEK cells (HEK-hCRTH2 cell line), membranes
T1 sequence (Q9Y5Y4 1-395): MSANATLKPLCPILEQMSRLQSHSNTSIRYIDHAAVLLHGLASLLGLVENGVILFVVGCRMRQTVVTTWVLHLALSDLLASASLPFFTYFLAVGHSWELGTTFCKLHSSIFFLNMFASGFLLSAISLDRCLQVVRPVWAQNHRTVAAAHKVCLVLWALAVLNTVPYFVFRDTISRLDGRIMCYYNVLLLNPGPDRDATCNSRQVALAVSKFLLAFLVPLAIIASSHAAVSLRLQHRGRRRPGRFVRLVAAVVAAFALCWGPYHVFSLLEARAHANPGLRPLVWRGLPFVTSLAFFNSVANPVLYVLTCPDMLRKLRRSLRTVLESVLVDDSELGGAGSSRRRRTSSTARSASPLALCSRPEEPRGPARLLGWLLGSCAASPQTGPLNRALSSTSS
The experiment in a line: Radioligand binding assay ([3H]PGD2 competition, membranes of HEK-hCRTH2 cell line). The conditions noted are these: 3.0 nM [3H]PGD2, HEK-hCRTH2 membranes, 60 min, room temperature. How it is done:
Competing ligands were diluted in dimethylsulfoxide (Me2SO) that was kept constant at 1% (v/v) of the final incubation volume. The reaction was initiated by the addition of 8-20 μg of membrane protein prepared from a HEK-hCRTH2 cell line. Total and non-specific binding were determined in the absence and the presence of […] PGD2, respectively. […] The reaction was routinely conducted for 60 min at room temperature and terminated by rapid filtration through prewetted (0.3% polyethyleneimine) 96-well printed filtermate (Wallac) using a Tomtec harvester. After washing with cold buffer, the filter was dried for 2 minutes in microwave, and Meltilex Scintillator sheet (Wallac) was melted on for 2 min.

Several values for one entry are separate records, joined by “and”; a condition that tells them apart may be missing. Identical values can stand only once. Like-named read-outs stand apart in the source and are kept apart here. Bounds are passed on as bounds.

The Ki is a dissociation constant, usually derived from enzyme kinetics or from competition with a known ligand. In the case of `CC1(C(O)c2ccc(C#N)cc2)CC(c2ccc3c(=O)n(-c4ccc(F)cc4)c(CCCCC(=O)O)nc3c2)=NO1` (stereo not drawn) [Example 132], the Ki (read-out: Ki) fell in the range of 10 to 50 nM.

Regarding `O=C(O)CCCCc1nc2cc(C3=NOC[C@H](c4ccc(F)cc4)N3)ccc2c(=O)n1-c1ccc(F)cc1` [Example 37E], the Ki (read-out: Ki) was at most 10 nM.

As for `Cn1cc(-c2ccc3c(=O)n(-c4ccc(F)cc4)c(CCCCC(=O)O)nc3c2)nn1` [Example 9, 5-(3-(4-Fluorophenyl)-7-(1-methyl-1H-1,2,3-triazol-4-yl)-4-oxo-3,4-dihydroquinazolin-2-yl)pentanoic acid], the Ki (read-out: Ki) is at most 10 nM.

Consider `O=C(O)CCCCc1nc2cc(-c3cc(Cc4ccc(F)cc4)on3)ccc2c(=O)n1-c1ccc(F)cc1` [Example 25, 5-(7-(5-(4-fluorobenzyl)isoxazol-3-yl)-3-(4-fluorophenyl)-4-oxo-3,4-dihydroquinazolin-2-yl)pentanoic acid], for which the Ki (read-out: Ki) is ≤ 10 nM and 1 nM.

With `O=C(O)CCCCc1nc2cc(-c3cc(CNS(=O)(=O)c4ccc(Cl)cc4)on3)ccc2c(=O)n1-c1ccc(F)cc1` [Example 24o], the Ki (read-out: Ki) was at most 10 nM.

`COCC1(c2ccccc2)CC(c2ccc3c(=O)n(-c4ccc(Cl)cc4)c(CCCCC(=O)O)nc3c2)=NO1` (stereo not drawn) [Example 15W]: the Ki (read-out: Ki) lay within 10 to 50 nM.

Regarding `O=C(O)CCCCc1nc2cc(C3=NOC4(CCc5ccccc54)C3)ccc2c(=O)n1-c1ccc(F)cc1` (stereo not drawn) [Example 143], the Ki (read-out: Ki) is 10 to 50 nM.

For the compound `O=C(O)CCCCc1nc2cc(-c3cc(CSc4nc5cc(OC(F)F)ccc5[nH]4)on3)ccc2c(=O)n1-c1ccc(F)cc1` [Example 39, 5-(7-(5-((5-(difluoromethoxy)-1H-benzo[d]imidazol-2-ylthio)methyl)isoxazol-3-yl)-3-(4-fluorophenyl)-4-oxo-3,4-dihydroquinazolin-2-yl)pentanoic acid], under “read-out: Ki”, the Ki lay within 10 to 50 nM.

Regarding `O=C(O)CCCCc1nc2cc(-c3cc(Cc4cnc5ccccc5n4)on3)ccc2c(=O)n1-c1ccc(F)cc1` [Example 25L], the Ki (read-out: Ki) was at most 10 nM.

As for `C[C@@]1(c2nc3c(F)cc(F)cc3[nH]2)CC(c2ccc3c(=O)n(-c4ccc(F)cc4)c(CCCCC(=O)O)nc3c2)=NO1` [Example 213], the Ki (read-out: Ki) was at most 10 nM.

For `C[C@@]1(c2nc3cc(C(F)(F)F)ccc3[nH]2)CC(c2ccc3c(=O)n(-c4ccc(F)cc4)c(CCCCC(=O)O)nc3c2)=NO1` [Example 196], for the setting “read-out: Ki”, the Ki is at most 10 nM.

Regarding `O=C(O)CCCCc1nc2cc(-c3noc(C4CCCc5ccccc54)n3)ccc2c(=O)n1-c1ccc(F)cc1` (stereo not drawn) [Example 245], for the setting “read-out: Ki”, the Ki was in the range of 10 to 50 nM.

On to `C[C@]1([C@H](O)c2ccccc2)CC(c2ccc3c(=O)n(-c4ccc(F)cc4)c(CCCCC(=O)O)nc3c2)=NO1` [Example 26G], for which the Ki (read-out: Ki) lay in the range of 10 to 50 nM.

In the case of `O=C(O)CCCCc1nc2cc(-n3cc(C4CC4)nn3)ccc2c(=O)n1-c1ccc(F)cc1` [Example 21, 5-[7-(4-cyclopropyl-1H-1,2,3-triazol-1-yl)-3-(4-fluorophenyl)-4-oxo-3,4-dihydroquinazolin-2-yl]pentanoic acid], where the note is “read-out: Ki”, the Ki is at most 10 nM.

`O=C(O)CCCCc1nc2cc(-c3cc(COCc4cc(F)ccc4F)on3)ccc2c(=O)n1-c1ccc(F)cc1` [Example 275]: under “read-out: Ki”, the Ki was at most 10 nM.

For `CO[C@H](c1ccccc1)c1cc(-c2ccc3c(=O)n(-c4ccc(F)cc4)c(C(C)CCCC(=O)O)nc3c2)no1` (stereo partly drawn) [Example 148], the inhibitory constant (Ki) (read-out: Ki) was at most 10 nM.

For the compound `CC1(c2ncc3ccccn23)CC(c2ccc3c(=O)n(-c4ccc(F)cc4)c(CCCCC(=O)O)nc3c2)=NO1` (stereo not drawn) [Example 226], the Ki (read-out: Ki) is 10 to 50 nM.

In the case of `C[C@@]1(c2cccc(Br)c2)CC(c2ccc3c(=O)n(-c4ccc(F)cc4)c(CCCCC(=O)O)nc3c2)=NO1` [Example 235], the Ki (read-out: Ki) was at most 10 nM.

As to `O=C(O)CCCCc1nc2cc(-c3noc(Cc4ccc(F)cc4)n3)ccc2c(=O)n1-c1ccc(F)cc1` [Example 36, 5-(7-(5-(4-fluorobenzyl)-1,2,4-oxadiazol-3-yl)-3-(4-fluorophenyl)-4-oxo-3,4-dihydroquinazolin-2-yl)pentanoic acid], the Ki (read-out: Ki) is at most 10 nM.

`O=C(O)CCCCc1nc2cc(-c3cc(C(O)(c4ccccc4)C(F)(F)F)on3)ccc2c(=O)n1-c1ccc(F)cc1` (stereo not drawn) [Example 131]: the Ki (read-out: Ki) lay in the range of 10 to 50 nM.

Turning to `CC(O)(c1cccc(F)c1)c1cc(-c2ccc3c(=O)n(-c4ccc(F)cc4)c(CCCCC(=O)O)nc3c2)no1` (stereo not drawn) [Example 130], the Ki (read-out: Ki) was at most 10 nM.

Regarding `C[C@@H](c1ccc(F)cc1)c1cc(-c2ccc3c(=O)n(-c4ccc(F)cc4)c(CCCCC(=O)O)nc3c2)no1` [Example 264], under “read-out: Ki”, the Ki is at most 10 nM.

As to `CC1(c2nc3cc(Cl)c(F)cc3[nH]2)CC(c2ccc3c(=O)n(-c4ccc(F)cc4)c(CCCCC(=O)O)nc3c2)=NO1` (stereo not drawn) [Example 197], the Ki (read-out: Ki) was at most 10 nM.

Take `CC1(c2nc3ccccc3o2)CC(c2ccc3c(=O)n(-c4ccc(F)cc4)c(CCCCC(=O)O)nc3c2)=NO1` (single isomer, unassigned) [Example 35, 5-(7-(5-(benzo[d]oxazol-2-yl)-5-methyl-4,5-dihydroisoxazol-3-yl)-3-(4-fluorophenyl)-4-oxo-3,4-dihydroquinazolin-2-yl)pentanoic acid]: the Ki (Ki) is at most 10 nM.

Take `CC[C@](O)(c1ccc(F)cc1)c1cc(-c2ccc3c(=O)n(-c4ccc(F)cc4)c(CCCCC(=O)O)nc3c2)no1` [Example 257]: the Ki (read-out: Ki) is at most 10 nM.

As for `CC1(c2nc3ccccc3[nH]2)CC(c2ccc3c(=O)n(-c4ccc(F)cc4)c(CCCCC(=O)O)nc3c2)=NO1` (stereo not drawn) [Example 160], the Ki (read-out: Ki) was at most 10 nM.

For `N#Cc1ccccc1C1CC(c2ccc3c(=O)n(-c4ccc(F)cc4)c(CCCCC(=O)O)nc3c2)=NO1` (stereo not drawn) [Example 251], under “read-out: Ki”, the Ki was at most 10 nM.

Regarding `O=C(O)CCCCc1nc2cc(-c3cc(COCc4cc(F)cc(Cl)c4)on3)ccc2c(=O)n1-c1ccc(F)cc1` [Example 271], under “read-out: Ki”, the Ki was at most 10 nM.

Regarding `C[C@](O)(c1ccc(F)cc1)c1cc(-c2ccc3c(=O)n(-c4ccc(F)cc4)c(CCCCC(=O)O)nc3c2)no1` [Example 259], the Ki (read-out: Ki) was in the range of 10 to 50 nM.

In the case of `O=C(O)CCCCc1nc2cc(-c3cc([C@@H](O)c4ccccc4)on3)ccc2c(=O)n1-c1ccc(F)cc1` [Example 101], for the setting “read-out: Ki”, the Ki is at most 10 nM.

On to `C[C@@H](OCc1cccc(F)c1)c1cc(-c2ccc3c(=O)n(-c4ccc(F)cc4)c(CCCCC(=O)O)nc3c2)no1` [Example 273], for which the Ki (read-out: Ki) was at most 10 nM.

Regarding `CC(c1ccccc1)C1(C)CC(c2ccc3c(=O)n(-c4ccc(F)cc4)c(CCCCC(=O)O)nc3c2)=NO1` (single isomer, unassigned) [Example 42G, 5-(3-(4-fluorophenyl)-7-(5-methyl-5-(1-phenylethyl)-4,5-dihydroisoxazol-3-yl)-4-oxo-3,4-dihydroquinazolin-2-yl)pentanoic acid], the Ki (read-out: Ki) fell in the range of 10 to 50 nM.

`CC1(C(=O)Nc2cc(F)ccc2O)CC(c2ccc3c(=O)n(-c4ccc(F)cc4)c(CCCCC(=O)O)nc3c2)=NO1` (stereo not drawn) [Example 166]: the Ki (read-out: Ki) was at most 10 nM.

Take `O=C(O)CCCCc1nc2cc(C3=NO[C@H](c4nc5ccc(Cl)cc5s4)C3)ccc2c(=O)n1-c1ccc(F)cc1` [Example 154]: the Ki (read-out: Ki) is at most 10 nM.

As to `C[C@]1(c2cccc(Br)c2)CC(c2ccc3c(=O)n(-c4ccc(F)cc4)c(CCCCC(=O)O)nc3c2)=NO1` [Example 236], the inhibition constant Ki (read-out: Ki) lay in the range of 10 to 50 nM.

Regarding `O=C(O)CCCCc1nc2cc(C3=NOC(c4ccccc4)C3)ccc2c(=O)n1-c1ccc(F)cc1` (stereo not drawn) [Example 15, 5-(3-(4-fluorophenyl)-4-oxo-7-(5-phenyl-4,5-dihydroisoxazol-3-yl)-3,4-dihydroquinazolin-2-yl)pentanoic acid], the Ki (read-out: Ki) is 10 to 50 nM.

As for `C[C@@]1(Cc2ccccc2)CC(c2ccc3c(=O)n(-c4ccccc4)c(CCCCC(=O)O)nc3c2)=NO1` [Example 26M], for the setting “read-out: Ki”, the Ki is at most 10 nM.

`O=C(O)CCCCc1nc2cc(-c3cc(COCc4ccc(F)c(F)c4)on3)ccc2c(=O)n1-c1ccc(F)cc1` [Example 270]: the Ki (read-out: Ki) was at most 10 nM.

`C[C@@]1(c2nc3cc(Cl)c(F)cc3[nH]2)CC(c2ccc3c(=O)n(-c4ccc(F)cc4)c(CCCCC(=O)O)nc3c2)=NO1` [Example 209]: the Ki (read-out: Ki) is at most 10 nM.

Turning to `O=C(O)CCCCc1nc2cc(-c3cc(C(O)c4ccc5ccccc5c4)on3)ccc2c(=O)n1-c1ccc(F)cc1` (stereo not drawn) [Example 25i], for the setting “read-out: Ki”, the Ki is at most 10 nM.

Take `O=C(O)CCCCc1nc2cc(C3=NOC(c4ccncc4)C3)ccc2c(=O)n1-c1ccc(Cl)cc1` (stereo not drawn) [Example 15M]: for the setting “read-out: Ki”, the Ki was at most 10 nM.

In the case of `C[C@@]1(c2ncc3ccccn23)CC(c2ccc3c(=O)n(-c4ccc(F)cc4)c(CCCCC(=O)O)nc3c2)=NO1` [Example 227], the Ki (read-out: Ki) fell in the range of 10 to 50 nM.

As to `O=C(O)CCCCc1nc2cc(-c3cc(CNS(=O)(=O)c4ccc(F)c(F)c4)on3)ccc2c(=O)n1-c1ccc(F)cc1` [Example 24P], the Ki (read-out: Ki) is at most 10 nM.

As to `O=C(O)CCCCc1nc2cc(-c3cc(CSc4nc5ccccc5[nH]4)on3)ccc2c(=O)n1-c1ccc(F)cc1` [Example 39K], the Ki (read-out: Ki) was at most 10 nM.

Regarding `CC(C)(C)OC(=O)N1CCC2(CC1)CC(c1ccc3c(=O)n(-c4ccc(Cl)cc4)c(CCCCC(=O)O)nc3c1)=NO2` [Example 15T], the Ki (read-out: Ki) is at most 10 nM.

For the origin of these results see patent US8927559B2, “Quinazolinone-type compounds as CRTH2 antagonists” (Merck Sharp & Dohme Corp., priority 2010, dated 2015).
